ChEMBL document CHEMBL3259789, “Indothiazinone, an indolyl thiazolyl ketone from a novel myxobacterium belonging to the Sorangiineae” (J Nat Prod, 2014)
Values after ≈ are worked out from the molar mass of the structure shown. Active and inactive are the calls of the source. The rule behind the calls is not given here.

Experiments:
[1] = tested on: Chromobacterium violaceum; assay: Antimicrobial activity against Chromobacterium violaceum DSM 30191 by serial dilution method; format: functional
Bacillus subtilis [2] = assay: Antimicrobial activity against Bacillus subtilis DSM 10 by serial dilution method; format: functional
Paenibacillus polymyxa [3] = assay: Antimicrobial activity against Paenibacillus polymyxa DSM 36 by serial dilution method; format: functional
Staphylococcus aureus [4] = assay: Antimicrobial activity against Staphylococcus aureus DSM 346 by serial dilution method; format: functional
Pimelobacter simplex [5] = assay: Antimicrobial activity against Nocardioides simplex DSM 20130 by serial dilution method; format: functional
Escherichia coli [6] = assay: Antimicrobial activity against Escherichia coli DSM 1116 by serial dilution method; format: functional
[7] = tested on: Mycolicibacterium diernhoferi; assay: Antimicrobial activity against Mycobacterium diernhoferi DSM 43524 by serial dilution method; format: functional
Nocardia sp. [8] = assay: Antimicrobial activity against Nocardia sp. DSM 43069 by serial dilution method; format: functional
Micrococcus luteus [9] = assay: Antimicrobial activity against Micrococcus luteus DSM 20030 by serial dilution method; format: functional
Escherichia coli [10] = assay: Antimicrobial activity against Escherichia coli DSM 1116 at 6.7 to 67 ug/ml by serial dilution method; format: functional, organism-based
[11] = tested on: Mycolicibacterium diernhoferi; assay: Antimicrobial activity against Mycobacterium diernhoferi DSM 43524 at 6.7 to 67 ug/ml by serial dilution method; format: functional, organism-based
Micrococcus luteus [12] = assay: Antimicrobial activity against Micrococcus luteus DSM 20030 at 6.7 to 67 ug/ml by serial dilution method; format: functional, organism-based
[13] = tested on: Chromobacterium violaceum; assay: Antimicrobial activity against Chromobacterium violaceum DSM 30191 at 6.7 to 67 ug/ml by serial dilution method; format: functional, organism-based
Saccharomyces cerevisiae [14] = assay: Antimicrobial activity against Saccharomyces cerevisiae BTc-3A at 6.7 to 67 ug/ml by serial dilution method; format: functional, organism-based
Penicillium capsulatum [15] = assay: Antimicrobial activity against Penicillium capsulatum DSM 2210 at 6.7 to 67 ug/ml by serial dilution method; format: functional
[16] = tested on: Schizosaccharomyces pombe; assay: Antimicrobial activity against Schizosaccharomyces pombe DSM 70572 at 6.7 to 67 ug/ml by serial dilution method; format: functional, organism-based
Rhodotorula glutinis [17] = assay: Antimicrobial activity against Rhodotorula glutinis DSM 10134 at 6.7 to 67 ug/ml by serial dilution method; format: functional, organism-based
Mucor hiemalis [18] = assay: Antimicrobial activity against Mucor hiemalis DSM 2656 at 6.7 to 67 ug/ml by serial dilution method; format: functional, organism-based
Pichia membranifaciens [19] = assay: Antimicrobial activity against Pichia membranifaciens DSM 21959 at 6.7 to 67 ug/ml by serial dilution method; format: functional, organism-based
Eremothecium coryli [20] = assay: Antimicrobial activity against Nematospora coryli DSM 6981 at 6.7 to 67 ug/ml by serial dilution method; format: functional, organism-based
Wickerhamomyces anomalus [21] = assay: Antimicrobial activity against Pichia anomala DSM 6766 at 6.7 to 67 ug/ml by serial dilution method; format: functional, organism-based
Paenibacillus polymyxa [22] = assay: Antimicrobial activity against Paenibacillus polymyxa DSM 36 at 6.7 to 67 ug/ml by serial dilution method; format: functional
Staphylococcus aureus [23] = assay: Antimicrobial activity against Staphylococcus aureus DSM 346 at 6.7 to 67 ug/ml by serial dilution method; format: functional, organism-based
Candida albicans [24] = assay: Antimicrobial activity against Candida albicans DSM 1665 at 6.7 to 67 ug/ml by serial dilution method; format: functional, organism-based
[25] = Cytotoxicity against mouse L929 cells after 5 days; format: cell-based; conditions: read-out: LC50
Debaryomyces hansenii [26] = assay: Antimicrobial activity against Debaryomyces hansenii DSM 3428 at 6.7 to 67 ug/ml by serial dilution method; format: functional, organism-based
Aspergillus clavatus [27] = assay: Antimicrobial activity against Aspergillus clavatus DSM 816 at 6.7 to 67 ug/ml by serial dilution method; format: functional, organism-based
Pimelobacter simplex [28] = assay: Antimicrobial activity against Nocardioides simplex DSM 20130 at 6.7 to 67 ug/ml by serial dilution method; format: functional
Pseudomonas aeruginosa [29] = assay: Antimicrobial activity against Pseudomonas aeruginosa DSM 50071 at 6.7 to 67 ug/ml by serial dilution method; format: functional, organism-based
Nocardia sp. [30] = assay: Antimicrobial activity against Nocardia sp. DSM 43069 at 6.7 to 67 ug/ml by serial dilution method; format: functional, organism-based
Amorphotheca resinae [31] = assay: Antimicrobial activity against Hormoconis resinae DSM 1203 at 6.7 to 67 ug/ml by serial dilution method; format: functional, organism-based
Trichosporon oleaginosus [32] = assay: Antimicrobial activity against Trichosporon oleaginosus DSM 11815 at 6.7 to 67 ug/ml by serial dilution method; format: functional; conditions: Cutaneotrichosporon oleaginosum
Eremothecium coryli [33] = assay: Antimicrobial activity against Nematospora coryli DSM 6981 by serial dilution method; format: functional
Mucor hiemalis [34] = assay: Antimicrobial activity against Mucor hiemalis DSM 2656 by serial dilution method; format: functional
Aspergillus clavatus [35] = assay: Antimicrobial activity against Aspergillus clavatus DSM 816 by serial dilution method; format: functional
Rhodotorula glutinis [36] = assay: Antimicrobial activity against Rhodotorula glutinis DSM 10134 by serial dilution method; format: functional
Trichosporon oleaginosus [37] = assay: Antimicrobial activity against Trichosporon oleaginosus DSM 11815 by serial dilution method; format: functional; conditions: Cutaneotrichosporon oleaginosum
Pseudomonas aeruginosa [38] = assay: Antimicrobial activity against Pseudomonas aeruginosa DSM 50071 by serial dilution method; format: functional, organism-based
Candida albicans [39] = assay: Antimicrobial activity against Candida albicans DSM 1665 by serial dilution method; format: functional
Penicillium capsulatum [40] = assay: Antimicrobial activity against Penicillium capsulatum DSM 2210 by serial dilution method; format: functional
Debaryomyces hansenii [41] = assay: Antimicrobial activity against Debaryomyces hansenii DSM 3428 by serial dilution method; format: functional
Amorphotheca resinae [42] = assay: Antimicrobial activity against Hormoconis resinae DSM 1203 by serial dilution method; format: functional, organism-based
Saccharomyces cerevisiae [43] = assay: Antimicrobial activity against Saccharomyces cerevisiae BTc-3A by serial dilution method; format: functional, organism-based
Pichia membranifaciens [44] = assay: Antimicrobial activity against Pichia membranifaciens DSM 21959 by serial dilution method; format: functional, organism-based
Wickerhamomyces anomalus [45] = assay: Antimicrobial activity against Pichia anomala DSM 6766 by serial dilution method; format: functional, organism-based
[46] = tested on: Schizosaccharomyces pombe; assay: Antimicrobial activity against Schizosaccharomyces pombe DSM 70572 by serial dilution method; format: functional
Bacillus subtilis [47] = assay: Antimicrobial activity against Bacillus subtilis DSM 10 at 6.7 to 67 ug/ml by serial dilution method; format: functional, organism-based

Row | Compound | MIC (Pimelobacter simplex [5]) [µg/mL] | inhibition (Escherichia coli [10]) | inhibition [11] | inhibition (Micrococcus luteus [12]) | inhibition [13] | inhibition (Saccharomyces cerevisiae [14]) | inhibition (Penicillium capsulatum [15]) | inhibition [16] | inhibition (Pichia membranifaciens [19]) | inhibition (Wickerhamomyces anomalus [21]) | inhibition (Paenibacillus polymyxa [22]) | inhibition (Staphylococcus aureus [23]) | inhibition (Candida albicans [24]) | CC50 at 120 h [25] [µg/mL] | inhibition (Pseudomonas aeruginosa [29]) | inhibition (Amorphotheca resinae [31]) | MIC (Mucor hiemalis [34]) [µg/mL] | MIC (Aspergillus clavatus [35]) [µg/mL] | MIC (Rhodotorula glutinis [36]) [µg/mL] | MIC (Trichosporon oleaginosus [37]) [µg/mL] | further results
1 | CN(C)[C@@H]1C(O)=C(C(N)=O)C(=O)[C@@]2(O)C(O)=C3C(=O)c4c(O)cccc4[C@@](C)(O)[C@H]3[C@H](O)[C@@H]12.Cl [OXYTETRACYCLINE HYDROCHLORIDE] | 16.6 |  |  |  |  |  |  |  |  |  |  |  |  |  |  |  |  |  |  |  | MIC [1]: 1 µg/mL; MIC (Bacillus subtilis [2]): 8.3 µg/mL; MIC (Paenibacillus polymyxa [3]): 8.3 µg/mL; MIC (Staphylococcus aureus [4]): 0.21 µg/mL; MIC (Escherichia coli [6]): 1 µg/mL; MIC [7]: < 0.25 µg/mL; MIC (Nocardia sp. [8]): 8.3 µg/mL; MIC (Micrococcus luteus [9]): 3.3 µg/mL
2 | C=C(C)/C=C/c1ccc2[nH]cc(CCO)c2c1 |  | inactive | inactive | inactive | inactive | inactive | inactive | inactive | inactive | inactive | inactive | inactive | inactive | > 10 | inactive | inactive |  |  |  |  | inhibition (Rhodotorula glutinis [17]): inactive; inhibition (Mucor hiemalis [18]): inactive; inhibition (Eremothecium coryli [20]): inactive; inhibition (Debaryomyces hansenii [26]): inactive; inhibition (Aspergillus clavatus [27]): inactive; inhibition (Pimelobacter simplex [28]): inactive; inhibition (Nocardia sp. [30]): inactive; inhibition (Trichosporon oleaginosus [32]): inactive
3 | O=C(c1nccs1)c1c[nH]c2ccccc12 |  | inactive | inactive | inactive | inactive | inactive | inactive | inactive | inactive | inactive | inactive | inactive | inactive | > 10 | inactive | inactive | 33.3 (≈ 146 µM) | 33.3 (≈ 146 µM) | 67 (≈ 294 µM) | 67 (≈ 294 µM) | MIC (Eremothecium coryli [33]): 33.3 µg/mL (≈ 146 µM); inhibition (Debaryomyces hansenii [26]): inactive; inhibition (Pimelobacter simplex [28]): inactive; inhibition (Nocardia sp. [30]): inactive
4 | GENTAMICIN |  |  |  |  |  |  |  |  |  |  |  |  |  |  |  |  |  |  |  |  | MIC (Pseudomonas aeruginosa [38]): 67 µg/mL
5 | CC1=C(CCO)C(=O)c2ccccc2C1=O |  | inactive |  | inactive |  |  |  | inactive |  | inactive |  |  |  |  |  |  | 67 (≈ 310 µM) |  | 67 (≈ 310 µM) |  | MIC [1]: 67 µg/mL (≈ 310 µM); MIC (Bacillus subtilis [2]): 33.3 µg/mL (≈ 154 µM); MIC (Candida albicans [39]): 67 µg/mL (≈ 310 µM); MIC (Staphylococcus aureus [4]): 33.3 µg/mL (≈ 154 µM)
6 | NYSTATIN |  |  |  |  |  |  |  |  |  |  |  |  |  |  |  |  | 2.1 | 2.1 | 0.52 | 1 | MIC (Penicillium capsulatum [40]): 16.6 µg/mL; MIC (Debaryomyces hansenii [41]): 6.7 µg/mL; MIC (Amorphotheca resinae [42]): < 0.25 µg/mL; MIC (Candida albicans [39]): 4.2 µg/mL; MIC (Eremothecium coryli [33]): 4.2 µg/mL; MIC (Saccharomyces cerevisiae [43]): 1.7 µg/mL; MIC (Pichia membranifaciens [44]): 0.83 µg/mL; MIC (Wickerhamomyces anomalus [45]): 4.2 µg/mL; MIC [46]: 33.3 µg/mL
7 | CC(=O)/C=C/c1ccc2[nH]cc(CCO)c2c1 |  | inactive |  | inactive | inactive |  |  | inactive |  | inactive |  | inactive | inactive |  | inactive |  |  |  |  |  | inhibition (Bacillus subtilis [47]): inactive; inhibition (Rhodotorula glutinis [17]): inactive; inhibition (Mucor hiemalis [18]): inactive
8 | C=C(C)/C=C/c1ccc2[nH]cc(C/C=N\O)c2c1 | 33.3 (≈ 139 µM) | inactive | inactive | inactive | inactive | inactive | inactive |  | inactive | inactive | inactive | inactive | inactive | 6.8 (≈ 28.3 µM) | inactive | inactive | 67 (≈ 279 µM) | 67 (≈ 279 µM) | 67 (≈ 279 µM) | 67 (≈ 279 µM) | MIC (Debaryomyces hansenii [41]): 67 µg/mL (≈ 279 µM); inhibition (Eremothecium coryli [20]): inactive; MIC (Nocardia sp. [8]): 33.3 µg/mL (≈ 139 µM); MIC [46]: 67 µg/mL (≈ 279 µM)
9 | C=C(C)/C=C/c1ccc2[nH]cc(C/C=N/O)c2c1 | 33.3 (≈ 139 µM) | inactive | inactive | inactive | inactive | inactive | inactive |  | inactive | inactive | inactive | inactive | inactive | 6.8 (≈ 28.3 µM) | inactive | inactive | 67 (≈ 279 µM) | 67 (≈ 279 µM) | 67 (≈ 279 µM) | 67 (≈ 279 µM) | MIC (Debaryomyces hansenii [41]): 67 µg/mL (≈ 279 µM); inhibition (Eremothecium coryli [20]): inactive; MIC (Nocardia sp. [8]): 33.3 µg/mL (≈ 139 µM); MIC [46]: 67 µg/mL (≈ 279 µM)
